# Assay results: ChEMBL document CHEMBL4346676, “Base promoted synthesis of novel indole-dithiocarbamate compounds as potential anti-inflammatory therapeutic agents for treatment of acute lung injury” (Eur J Med Chem, 2019)
# Active and inactive are the calls of the source. The rule behind the calls is not given here.
# What was measured:
# Peritoneal macrophage [1] = assay: Cytotoxicity against C57BL/6J mouse Primary peritoneal macrophages assessed as cell viability at 1 uM measured after 24 hrs by MTT assay; assay type: cell-based
# Peritoneal macrophage [2] = assay: Antiinflammatory activity in C57BL/6J mouse Primary peritoneal macrophages assessed as suppression of LPS-stimulated IL-6 expression at 1 uM preincubated for 30 mins followed by LPS stimulation measured after 24 hrs by ELISA; assay type: functional, cell-based
# Peritoneal macrophage [3] = assay: Antiinflammatory activity in C57BL/6J mouse Primary peritoneal macrophages assessed as suppression of LPS-stimulated TNF-alpha expression at 1 uM preincubated for 30 mins followed by LPS stimulation measured after 24 hrs by ELISA; assay type: functional, cell-based
# Peritoneal macrophage [4] = assay: Antiinflammatory activity in C57BL/6J mouse Primary peritoneal macrophages assessed as inhibition of LPS-stimulated TNF-alpha expression preincubated for 30 mins followed by LPS stimulation measured after 24 hrs by ELISA; assay type: functional, cell-based
# Peritoneal macrophage [5] = assay: Antiinflammatory activity in C57BL/6J mouse Primary peritoneal macrophages assessed as inhibition of LPS-stimulated IL-6 expression preincubated for 30 mins followed by LPS stimulation measured after 24 hrs by ELISA; assay type: functional, cell-based
# Mus musculus [6] = assay: Antiinflammatory activity in LPS-induced C57BL/6 mouse model of acute lung injury assessed as reduction in VCAM1 mRNA expression at 2.5 to 5 mg/kg, po pretreated for 3 days followed by LPS challenge measured after 6 hrs by SYBR green dye based RT-qPCR analysis; assay type: functional, organism-based
# Mus musculus [7] = assay: Antiinflammatory activity in LPS-induced C57BL/6 mouse model of acute lung injury assessed as reduction in total protein levels in BALF at 2.5 to 5 mg/kg, po pretreated for 3 days followed by LPS challenge measured after 6 hrs; assay type: functional, organism-based
# Mus musculus [8] = assay: Antiinflammatory activity in LPS-induced C57BL/6 mouse model of acute lung injury assessed as inhibition of inflammatory cell infiltration at 2.5 to 5 mg/kg, po pretreated for 3 days followed by LPS challenge measured after 6 hrs by hematoxylin and eosin staining based microscopic analysis; assay type: functional, organism-based
# Mus musculus [9] = assay: Antiinflammatory activity in LPS-induced C57BL/6 mouse model of acute lung injury assessed as reduction in TNF-alpha level in serum at 2.5 to 5 mg/kg, po pretreated for 3 days followed by LPS challenge measured after 6 hrs; assay type: functional, organism-based
# Mus musculus [10] = assay: Antiinflammatory activity in LPS-induced C57BL/6 mouse model of acute lung injury assessed as inhibition of interstitial edema at 2.5 to 5 mg/kg, po pretreated for 3 days followed by LPS challenge measured after 6 hrs by hematoxylin and eosin staining based microscopic analysis; assay type: functional, organism-based
# Mus musculus [11] = assay: Antiinflammatory activity in po dosed C57BL/6 mouse model of acute lung injury assessed as reduction in LPS-stimulated VCAM1 mRNA expression pretreated for 3 days followed by LPS challenge measured after 6 hrs by SYBR green dye based RT-qPCR analysis; assay type: functional, organism-based
# Mus musculus [12] = assay: Antiinflammatory activity in po dosed C57BL/6 mouse model of acute lung injury assessed as reduction in LPS-stimulated IL-6 mRNA expression pretreated for 3 days followed by LPS challenge measured after 6 hrs by SYBR green dye based RT-qPCR; assay type: functional, organism-based
# Mus musculus [13] = assay: Antiinflammatory activity in po dosed C57BL/6 mouse model of acute lung injury assessed as reduction in LPS-stimulated IL-1beta mRNA expression pretreated for 3 days followed by LPS challenge measured after 6 hrs by SYBR green dye based RT-qPCR; assay type: functional, organism-based
# Mus musculus [14] = assay: Antiinflammatory activity in LPS-induced C57BL/6 mouse model of acute lung injury assessed as reduction in ICAM1 mRNA expression at 2.5 to 5 mg/kg, po pretreated for 3 days followed by LPS challenge measured after 6 hrs by SYBR green dye based RT-qPCR analysis; assay type: functional, organism-based
# Mus musculus [15] = assay: Antiinflammatory activity in LPS-induced C57BL/6 mouse model of acute lung injury assessed as reduction in neutrophil count in BALF at 2.5 to 5 mg/kg, po pretreated for 3 days followed by LPS challenge measured after 6 hrs; assay type: functional, organism-based
# Mus musculus [16] = assay: Antiinflammatory activity in LPS-induced C57BL/6 mouse model of acute lung injury assessed as reduction in IL-6 level in serum at 2.5 to 5 mg/kg, po pretreated for 3 days followed by LPS challenge measured after 6 hrs; assay type: functional, organism-based
# Mus musculus [17] = assay: Antiinflammatory activity in LPS-induced C57BL/6 mouse model of acute lung injury assessed as reduction in IL-1beta mRNA expression at 2.5 to 5 mg/kg, po pretreated for 3 days followed by LPS challenge measured after 6 hrs by SYBR green dye based RT-qPCR analysis; assay type: functional, organism-based
# Mus musculus [18] = assay: Antiinflammatory activity in LPS-induced C57BL/6 mouse model of acute lung injury assessed as reduction in IL-6 level in BALF at 2.5 to 5 mg/kg, po pretreated for 3 days followed by LPS challenge measured after 6 hrs; assay type: functional, organism-based
# Mus musculus [19] = assay: Antiinflammatory activity in LPS-induced C57BL/6 mouse model of acute lung injury assessed as suppression of macrophage infiltration at 2.5 to 5 mg/kg, po pretreated for 3 days followed by LPS challenge measured after 6 hrs by F4/80/hematoxylin staining based microscopic analysis; assay type: functional, organism-based
# Mus musculus [20] = assay: Antiinflammatory activity in LPS-induced C57BL/6 mouse model of acute lung injury assessed as inhibition of destruction of alveolar hemorrhage at 2.5 to 5 mg/kg, po pretreated for 3 days followed by LPS challenge measured after 6 hrs by hematoxylin and eosin staining based microscopic analysis; assay type: functional, organism-based
# Mus musculus [21] = assay: Antiinflammatory activity in po dosed C57BL/6 mouse model of acute lung injury assessed as reduction in LPS-stimulated TNF-alpha mRNA expression pretreated for 3 days followed by LPS challenge measured after 6 hrs by SYBR green dye based RT-qPCR; assay type: functional, organism-based
# Mus musculus [22] = assay: Antiinflammatory activity in LPS-induced C57BL/6 mouse model of acute lung injury assessed as reduction in total protein level in BALF at 2.5 to 5 mg/kg, po pretreated for 3 days followed by LPS challenge measured after 6 hrs; assay type: functional, organism-based
# Mus musculus [23] = assay: Antiinflammatory activity in LPS-induced C57BL/6 mouse model of acute lung injury assessed as inhibition of interalveolar septal thickening at 2.5 to 5 mg/kg, po pretreated for 3 days followed by LPS challenge measured after 6 hrs by hematoxylin and eosin staining based microscopic analysis; assay type: functional, organism-based
# Mus musculus [24] = assay: Antiinflammatory activity in LPS-induced C57BL/6 mouse model of acute lung injury assessed as reduction in TNF-alpha level in BALF at 2.5 to 5 mg/kg, po pretreated for 3 days followed by LPS challenge measured after 6 hrs; assay type: functional, organism-based
# Mus musculus [25] = assay: Antiinflammatory activity in LPS-induced C57BL/6 mouse model of acute lung injury assessed as reduction in TNF-alpha mRNA expression at 2.5 to 5 mg/kg, po pretreated for 3 days followed by LPS challenge measured after 6 hrs by SYBR green dye based RT-qPCR analysis; assay type: functional, organism-based
# Mus musculus [26] = assay: Antiinflammatory activity in po dosed C57BL/6 mouse model of acute lung injury assessed as reduction in LPS-stimulated ICAM1 mRNA expression pretreated for 3 days followed by LPS challenge measured after 6 hrs by SYBR green dye based RT-qPCR analysis; assay type: functional, organism-based
# Mus musculus [27] = assay: Antiinflammatory activity in LPS-induced C57BL/6 mouse model of acute lung injury assessed as inhibition of destruction of alveolar structure at 2.5 to 5 mg/kg, po pretreated for 3 days followed by LPS challenge measured after 6 hrs by hematoxylin and eosin staining based microscopic analysis; assay type: functional, organism-based
# Mus musculus [28] = assay: Antiinflammatory activity in LPS-induced C57BL/6 mouse model of acute lung injury assessed as reduction in IL-6 mRNA expression at 2.5 to 5 mg/kg, po pretreated for 3 days followed by LPS challenge measured after 6 hrs by SYBR green dye based RT-qPCR; assay type: functional, organism-based
# Mus musculus [29] = assay: Antiinflammatory activity in LPS-induced C57BL/6 mouse model of acute lung injury assessed as reduction in lung wet/dry ratio at 2.5 to 5 mg/kg, po pretreated for 3 days followed by LPS challenge measured after 6 hrs; assay type: functional, organism-based
smiles,measurement,setting,value
CCN(CC)C(=S)Sn1c(C)cc2ccccc21,Activity,Peritoneal macrophage [1],Non-Toxic
S=C(Sn1ccc2ccccc21)N1CCc2ccccc2C1,Activity,Peritoneal macrophage [1],Non-Toxic
S=C(Sn1ccc2ccccc21)N1CCCCC1,Activity,Peritoneal macrophage [1],Non-Toxic
S=C(Sn1ccc2ccccc21)N(Cc1ccccc1)Cc1ccccc1,Activity,Peritoneal macrophage [1],Non-Toxic
COC(=O)c1ccc2ccn(SC(=S)N(C)C)c2c1,Activity,Peritoneal macrophage [1],Non-Toxic
CN(C)C(=S)Sn1ccc2c(Br)cccc21,Activity,Peritoneal macrophage [1],Non-Toxic
CN(C)C(=S)Sn1ccc2cc(Br)ccc21,Activity,Peritoneal macrophage [1],Non-Toxic
Cc1ccc2ccn(SC(=S)N(C)C)c2c1,Activity,Peritoneal macrophage [1],Non-Toxic
CN1CCN(C(=S)Sn2ccc3ccccc32)CC1,Activity,Peritoneal macrophage [1],Non-Toxic
S=C(Sn1ccc2ccccc21)N1CCCCCC1,Activity,Peritoneal macrophage [1],Non-Toxic
same,inhibition,Peritoneal macrophage [2],Active
same,inhibition,Peritoneal macrophage [3],Active
same,IC50,Peritoneal macrophage [4],114 nM
same,inhibition,Peritoneal macrophage [4],Dose-dependent effect
same,IC50,Peritoneal macrophage [5],87.6 nM
same,inhibition,Peritoneal macrophage [5],Dose-dependent effect
Cc1cc2ccccc2n1SC(=S)N(C)C,Activity,Peritoneal macrophage [1],Non-Toxic
CCOC(=O)C1CCCN(C(=S)Sn2ccc3ccccc32)C1 (configuration not stated),Activity,Peritoneal macrophage [1],Non-Toxic
CN(C)C(=S)Sn1ccc2cc(Cl)ccc21,Activity,Peritoneal macrophage [1],Non-Toxic
S=C(Sn1ccc2ccccc21)N1CCSCC1,Activity,Peritoneal macrophage [1],Non-Toxic
same,inhibition,Peritoneal macrophage [2],Active
same,inhibition,Peritoneal macrophage [3],Active
same,IC50,Peritoneal macrophage [4],14.1 nM
same,inhibition,Peritoneal macrophage [4],Dose-dependent effect
same,IC50,Peritoneal macrophage [5],87.4 nM
same,inhibition,Peritoneal macrophage [5],Dose-dependent effect
CN(C)C(=S)Sn1ccc2cc(F)ccc21,Activity,Peritoneal macrophage [1],Non-Toxic
CN(C)C(=S)Sn1ccc2ccccc21,Activity,Peritoneal macrophage [1],Non-Toxic
Cc1ccc2c(c1)cc(C)n2SC(=S)N(C)C,Activity,Peritoneal macrophage [1],Non-Toxic
S=C(Sn1ccc2ccccc21)N1CCC(Cc2ccccc2)CC1,Activity,Peritoneal macrophage [1],Non-Toxic
CC1CCN(C(=S)Sn2ccc3ccccc32)CC1,Activity,Peritoneal macrophage [1],Non-Toxic
Cc1cn(SC(=S)N(C)C)c2ccccc12,inhibition,Mus musculus [6],Active
same,Activity,Mus musculus [7],Active
same,Activity,Peritoneal macrophage [1],Non-Toxic
same,Activity,Mus musculus [8],Active
same,inhibition,Peritoneal macrophage [2],Active
same,inhibition,Peritoneal macrophage [3],Active
same,Activity,Mus musculus [9],Active
same,Activity,Mus musculus [10],Active
same,inhibition,Mus musculus [11],Dose-dependent effect
same,inhibition,Mus musculus [12],Dose-dependent effect
same,inhibition,Mus musculus [13],Dose-dependent effect
same,inhibition,Mus musculus [14],Active
same,Activity,Mus musculus [15],Active
same,Activity,Mus musculus [16],Active
same,inhibition,Mus musculus [17],Active
same,Activity,Mus musculus [18],Active
same,Activity,Mus musculus [19],Active
same,Activity,Mus musculus [20],Active
same,IC50,Peritoneal macrophage [4],28.1 nM
same,inhibition,Peritoneal macrophage [4],Dose-dependent effect
same,inhibition,Mus musculus [21],Dose-dependent effect
same,Activity,Mus musculus [22],Active
same,Activity,Mus musculus [23],Active
same,Activity,Mus musculus [24],Active
same,inhibition,Mus musculus [25],Active
same,inhibition,Mus musculus [26],Dose-dependent effect
same,Activity,Mus musculus [27],Active
same,inhibition,Mus musculus [28],Active
same,Activity,Mus musculus [29],Active
same,IC50,Peritoneal macrophage [5],14.6 nM
same,inhibition,Peritoneal macrophage [5],Dose-dependent effect
Cc1c(C)n(SC(=S)N(C)C)c2ccccc12,Activity,Peritoneal macrophage [1],Non-Toxic
COc1cccc2c1ccn2SC(=S)N(C)C,Activity,Peritoneal macrophage [1],Non-Toxic
same,inhibition,Peritoneal macrophage [2],Active
same,inhibition,Peritoneal macrophage [3],Active
same,IC50,Peritoneal macrophage [4],107 nM
same,inhibition,Peritoneal macrophage [4],Dose-dependent effect
same,IC50,Peritoneal macrophage [5],70.7 nM
same,inhibition,Peritoneal macrophage [5],Dose-dependent effect
CN(C)C(=S)Sn1ccc2ccc(N)cc21,Activity,Peritoneal macrophage [1],Non-Toxic
S=C(Sn1ccc2ccccc21)N1CCCC1,Activity,Peritoneal macrophage [1],Non-Toxic
CC1CCCC(C)N1C(=S)Sn1ccc2ccccc21 (configuration not stated),Activity,Peritoneal macrophage [1],Non-Toxic
S=C(Sn1ccc2ccccc21)N1CCOCC1,Activity,Peritoneal macrophage [1],Non-Toxic
CCN(CC)C(=S)Sn1ccc2ccccc21,Activity,Peritoneal macrophage [1],Non-Toxic
COc1cccc2ccn(SC(=S)N(C)C)c12,Activity,Peritoneal macrophage [1],Non-Toxic
COc1ccc2c(ccn2SC(=S)N(C)C)c1,Activity,Peritoneal macrophage [1],Non-Toxic
